In one assay the test system is H1-EPSCs. Nature of the assay: EB formation assay of H1-EPSCs, lineage gene expression. Particulars: 5.0 ng/ml supplemented in hEPSCM. Type of assay: cell-based, human. The protocol: Porcine and human EPSCs were trypsinised and seeded in gelatinised 6-well plates at a density of 4×10^6 cells/well for pre-differentiation. M15 media supplemented with 20 ng/ml ACTIVIN A (SCI) and 5 μM Rock inhibitor Y-27632 were used to culture the replated cells. The next day, the cells were detached using 0.25% trypsin/EDTA (Gibco, Cat. No. 25500-054) and plated to ultra-low cell attachment U-bottom 96-well plates (Corning, Cat. No. 7007) at a density of 5,000-6,000 cells/well in 200 μl M10 medium. After 7-8 days of growing, the EBs were collected for analysis. 0.25% (v/v) poly-vinyl alcohol (Sigma, Cat. No. 341584) was added in the medium to help cells aggregation.
Total RNA was isolated using an RNeasy Mini Kit (Qiagen, Cat. No. 74106) for cultured cells or RNeasy Micro Kit (Qiagen, Cat. No. 74034) for sorted NANOS3-mCherry^+ cells. RNA was subsequently quantified and treated with gDNA WipeOut to remove genomic DNA. Complementary DNA (cDNA) was prepared using a QuantiTect Reverse Transcription Kit (Qiagen, Cat. No. 205311). RT-qPCR primers or TaqMan Gene Expression Assays (Life Technologies) are listed in Supplementary Table 10 and 11. […] Gene expression was determined relative to GAPDH using the […]. […]

The subject of assay [1] is human ES cell (hESC) lines (H1, H9, M1, M10). As to the kind of experiment: Culture of human ES cell lines in pEPSCM minus ACTIVIN A (colony formation). Type of assay: cell-based. Particulars: removing ACTIVIN A (20 ng/ml) from pEPSCM. The source says:
Human ESCs have been widely used in studying human embryo development in vitro and hold great potential for regenerative medicine. The finding that inhibition of SRC and Tankyrases is sufficient to convert mouse ESCs to mEPSCs and that these two inhibitors are required for the generation of pEPSCs raises the possibility that similar in vitro culture conditions may also work for other mammalian species. To explore this possibility, four established human ES cell (hESC) lines (H1, H9, Man1 or M1, and Man10 or M10 cells) are cultured in pEPSCM and passaged them up to three times. […] Removing ACTIVIN A (20 ng/ml) from pEPSCM led to considerably fewer cell colonies formed from H1 (<1.0%) and M1 (5.0%) ESC cultures, while none from H9 or M10 (Extended Data FIG. 7a), which is consistent with the inherent between-line heterogeneity of human ESCs. With further refinement of the culture conditions (for example, replacing WH-4-023 with another SRC inhibitor A419259 in hEPSCM, see Methods), morphologically homogenous and stable cell lines were established from single-cell sub-cloned H1 (H1-EPSCs) and M1 cells (M1-EPSCs) (FIG. 3a).

Results on one substance are retold here after patent publication US20220145264A1, “CULTURE MEDIUM FOR MAMMALIAN EXPANDED POTENTIAL STEM CELLS, COMPOSITION, AND METHODS THEREOF” (THE UNIVERSITY OF HONG KONG, priority 2019, published 2022).

Entries after “also recorded” stand apart in the source; their conditions may differ.

As for “ACTIVIN A: Human Recombinant ACTIVIN A cytokine”, the “embryonic mesendoderm lineage differentiation / lineage gene expression in EBs” value in the assay with H1-EPSCs is on record as “stronger propensity for embryonic mesendoderm lineage differentiation; also recorded: substantially increased”. Besides, the cell colonies formed in assay [1] (H1 ESC culture) is under 1.0%; in assay [1] (H9), “none”; in assay [1] (M1 ESC culture), 5.0%; in assay [1] (M10), “none”.
